This note sets out measurements from ChEMBL document CHEMBL1143251 (J Med Chem, 2008).

The nature of assay [1]: Displacement of [3H]DTG from opioid sigma2 receptor in rat brain homogenate. The assay is classed as tissue-based.
A further assay concerns Mus musculus. As to the kind of experiment: Inhibition of cocaine-induced convulsions in ip dosed Swiss Webster mouse after 15 mins. It is filed as functional, organism-based.
Assay [2] concerns the target Sigma non-opioid intracellular receptor 1 (Rattus norvegicus, UniProt Q9R0C9). As to the kind of experiment: Displacement of [3H](+)-pentazocine from opioid sigma1 receptor in rat brain homogenate. It is filed as tissue-based.
For the next assay, the species on record is Rattus norvegicus. As to the kind of experiment: Ratio of Ki for rat sigma1 opioid receptor to Ki for rat sigma2 opioid receptor.
The target in a further assay is Glutamate NMDA receptor. As to the kind of experiment: Displacement of [3H]TCP from NMDA receptor in rat brain homogenate. The assay is classed as tissue-based.
The nature of assay [3]: Displacement of [3H]bremazocine from opioid receptor in rat brain homogenate. The assay is classed as tissue-based.
Assay [4] has as its target Sodium-dependent dopamine transporter (Rattus norvegicus, UniProt P23977). Briefly: Displacement of [3H]WIN-35428 from dopamine transporter in rat brain homogenate. It is filed as tissue-based.
Assay [5] addresses Norepinephrine transporter (Rattus norvegicus, UniProt Q9WTR4). Briefly: Displacement of [3H]nisoxetine from norepinephrine transporter in rat brain homogenate. It is filed as tissue-based.
Assay [6] is described as follows: Displacement of [3H]ketanserin from 5HT2 receptor in rat brain homogenate. The assay is classed as tissue-based.
For assay [7], the target named is Sodium-dependent serotonin transporter (Rattus norvegicus, UniProt P31652). As to the kind of experiment: Displacement of [3H]paroxetine from serotonin transporter in rat brain homogenate. The assay is classed as tissue-based.
Chain of Sodium-dependent serotonin transporter (P31652 whole entry): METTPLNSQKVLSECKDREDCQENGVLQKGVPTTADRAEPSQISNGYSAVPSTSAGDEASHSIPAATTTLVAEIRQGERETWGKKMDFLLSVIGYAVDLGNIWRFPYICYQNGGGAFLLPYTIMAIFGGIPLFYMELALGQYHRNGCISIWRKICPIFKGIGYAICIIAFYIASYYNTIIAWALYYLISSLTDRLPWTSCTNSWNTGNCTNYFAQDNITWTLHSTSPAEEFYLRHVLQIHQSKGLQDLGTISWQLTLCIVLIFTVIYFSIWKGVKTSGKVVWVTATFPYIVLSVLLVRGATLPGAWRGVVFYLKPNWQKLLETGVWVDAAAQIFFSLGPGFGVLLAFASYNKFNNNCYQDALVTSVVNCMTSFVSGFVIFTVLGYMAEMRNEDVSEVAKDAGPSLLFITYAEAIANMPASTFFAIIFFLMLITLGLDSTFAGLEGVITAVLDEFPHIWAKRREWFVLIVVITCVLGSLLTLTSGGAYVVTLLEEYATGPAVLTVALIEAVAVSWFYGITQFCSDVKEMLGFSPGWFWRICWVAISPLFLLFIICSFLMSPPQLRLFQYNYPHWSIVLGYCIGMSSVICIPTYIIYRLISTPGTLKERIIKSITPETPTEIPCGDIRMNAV

Activity calls are given as the source filed them. The rule behind the calls is not given here.

Chain of Sigma non-opioid intracellular receptor 1 (Q9R0C9 whole entry): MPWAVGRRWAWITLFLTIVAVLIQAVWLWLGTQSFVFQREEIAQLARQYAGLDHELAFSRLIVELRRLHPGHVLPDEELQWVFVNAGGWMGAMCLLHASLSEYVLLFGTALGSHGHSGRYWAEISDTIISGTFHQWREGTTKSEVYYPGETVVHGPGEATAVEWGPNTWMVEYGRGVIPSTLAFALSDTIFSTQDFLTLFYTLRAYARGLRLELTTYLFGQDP
Chain of Norepinephrine transporter (Q9WTR4 whole entry): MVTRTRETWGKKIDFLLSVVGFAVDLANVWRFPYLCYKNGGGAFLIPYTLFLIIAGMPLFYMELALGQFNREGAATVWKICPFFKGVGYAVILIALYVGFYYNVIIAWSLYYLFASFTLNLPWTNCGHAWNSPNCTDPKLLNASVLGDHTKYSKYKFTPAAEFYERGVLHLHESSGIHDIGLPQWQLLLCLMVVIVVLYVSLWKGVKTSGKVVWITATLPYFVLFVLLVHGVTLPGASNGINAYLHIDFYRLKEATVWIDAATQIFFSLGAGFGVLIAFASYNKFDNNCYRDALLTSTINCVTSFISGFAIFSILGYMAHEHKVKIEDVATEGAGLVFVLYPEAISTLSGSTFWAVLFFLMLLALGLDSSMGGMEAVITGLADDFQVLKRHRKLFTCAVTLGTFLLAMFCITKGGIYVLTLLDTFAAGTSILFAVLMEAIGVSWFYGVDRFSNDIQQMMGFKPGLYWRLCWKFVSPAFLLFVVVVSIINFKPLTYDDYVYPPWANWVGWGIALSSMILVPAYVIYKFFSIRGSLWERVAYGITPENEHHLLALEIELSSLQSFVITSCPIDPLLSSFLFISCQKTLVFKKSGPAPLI
Chain of Sodium-dependent dopamine transporter (P23977 whole entry): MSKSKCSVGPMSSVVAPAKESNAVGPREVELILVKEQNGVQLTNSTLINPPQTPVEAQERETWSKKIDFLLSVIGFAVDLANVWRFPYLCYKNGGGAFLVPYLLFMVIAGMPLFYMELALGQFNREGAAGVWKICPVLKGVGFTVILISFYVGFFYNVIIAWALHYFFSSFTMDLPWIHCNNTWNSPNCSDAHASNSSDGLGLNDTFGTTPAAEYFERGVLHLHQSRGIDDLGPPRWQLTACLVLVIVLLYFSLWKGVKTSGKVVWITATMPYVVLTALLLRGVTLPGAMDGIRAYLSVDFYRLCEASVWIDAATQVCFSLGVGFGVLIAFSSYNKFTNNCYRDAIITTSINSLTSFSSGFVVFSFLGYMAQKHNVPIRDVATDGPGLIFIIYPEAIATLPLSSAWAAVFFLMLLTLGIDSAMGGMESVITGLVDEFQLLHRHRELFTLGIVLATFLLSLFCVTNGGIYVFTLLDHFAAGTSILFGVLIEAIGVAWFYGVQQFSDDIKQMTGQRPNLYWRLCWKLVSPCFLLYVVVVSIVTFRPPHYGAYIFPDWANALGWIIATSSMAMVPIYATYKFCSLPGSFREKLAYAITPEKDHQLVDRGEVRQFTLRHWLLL

Consider `O=c1sc2ccccc2n1CCCCN1CCN(C2CCCCC2)CC1`, for which, in assay [1], the Ki is 0.39 nM.
Take `CCCc1ccc2c(c1)sc(=O)n2CCN1CCCCCC1`: the outcome in the assay with Mus musculus was Active. The Ki in assay [2] was determined as 0.12 nM; in assay [1] it was 831 nM. The Ratio Ki in the assay filed under Rattus norvegicus was 0.00014.
As to `O=c1oc2ccccc2n1CCN1CCN(C2CCCCC2)CC1`, in assay [1], the Ki came to 5.43 nM.
On to `O=c1oc2ccccc2n1CCCCN1CCN(C2CCCCC2)CC1`, for which the Ratio Ki in the assay filed under Rattus norvegicus came out at 6.15. The compound also came in with an inhibitory constant (Ki) in assay [1] of 1.83 nM.
In assay [1], `O=c1sc2ccccc2n1CCCCCN1CCN(C2CCCCC2)CC1` yielded an inhibition constant (Ki) of 2.44 nM.
For the compound `COc1cccc2c1CCCC2CCCN1CCN(C2CCCCC2)CC1` (configuration not stated), the figures for the inhibitory constant (Ki) in assay [2] and in [1] were 1.48 nM and 1.11 nM, respectively. Also, in the assay listed under Rattus norvegicus, the Ratio Ki came to 1.33.
`O=c1oc2ccccc2n1CCCCCN1CCN(C2CCCCC2)CC1`: the Ratio Ki in the assay filed under Rattus norvegicus was determined as 1.79. In addition, in assay [1], the Ki stood at 5.89 nM.
Turning to `c1ccc2oc(SCCCCN3CCN(C4CCCCC4)CC3)nc2c1`, the affinity in [1] corresponds to a Ki of 3.77 nM.
Same read-out and setting: then `S=c1oc2ccccc2n1CCCCN1CCN(C2CCCCC2)CC1`, with 0.77 nM.
Take `O=c1sc2ccccc2n1CCCN1CCN(C2CCCCC2)CC1`: the Ratio Ki in the assay listed under Rattus norvegicus amounted to 1.84. In [1], this compound showed a Ki of 3.05 nM.
`O=c1oc2ccccc2n1CCCN1CCN(C2CCCCC2)CC1` gave an inhibition constant Ki in [1] of 8.74 nM. In other words, the single-digit nanomolar range.
On to `O=c1sc2ccccc2n1CCCCCCN1CCN(C2CCCCC2)CC1`, for which, in the assay listed under Rattus norvegicus, the Ratio Ki amounted to 4.4. Also, the affinity in [1], expressed as Ki, was 1.49 nM.
As to `S=c1sc2ccccc2n1CCCCN1CCN(C2CCCCC2)CC1`, the inhibitory constant (Ki) at Glutamate NMDA receptor was over 10000 nM; in assay [3], over 10000 nM; in [4] it was 1170 nM; in assay [5] it was over 10000 nM; in assay [6], 1330 nM; in assay [7], 1400 nM. In addition, the Ki in assay [1] is 0.55 nM. In addition, the Ratio Ki in the assay listed under Rattus norvegicus came out at 2.33.
For `O=c1oc2ccccc2n1CCCCCCN1CCN(C2CCCCC2)CC1`, the Ratio Ki in the assay filed under Rattus norvegicus stood at 1.5. This compound returned an inhibition constant (Ki) in assay [1] of 3.06 nM.
With `O=c1sc2ccccc2n1CCN1CCN(C2CCCCC2)CC1`, affinity in [1] was put at a Ki of 2.25 nM.
